Several values for one entry are separate records, joined by “and”; a condition that tells them apart may be missing. Equal values may be shown once. Where a name gives a salt, the structure may show the parent alone. Read-outs that look alike come from different tables or passages of the source.
Tests used:
[1] = test system: nSMase2; details: cited from earlier work
[2] = In vitro stability in dog plasma; format: in vitro ADME; details: 37 °C; for remaining at 1 h, 10 μM: dog, 60 min, read-out: In Vitro Stability in Plasma (% Remaining at 60 min) Mean ± SEM (n = 3), Dogs; for In Vitro Stability in Plasma (% Remaining at 60 min) Mean ± SEM (n = 3), Dogs: 10 μM
Protocol: (§1) The in vitro metabolic stability analysis of DPTIP prodrugs was performed in the plasma of mice, dogs, and humans, as previously described. Briefly, for plasma stability, 1 mL of plasma was spiked with 10 μM of the respective prodrug followed by incubation in an orbital shaker at 37 °C for 1 h (in triplicate). The samples from each incubation at predetermined time points (0 and 60 min) was quenched with 3× volume of acetonitrile containing the internal standard (IS; losartan: 0.5 μM). The samples were vortex-mixed for 30 s and centrifuged at 10,000× g for 10 min at 4 °C. Compound disappearance over time was monitored via a Dionex ultra-high-performance LC system coupled with a Q Exactive Focus orbitrap mass spectrometer (Thermo Fisher Scientific Inc., Waltham, MA, USA). Quantification of the prodrugs was performed in full scan mode (from m/z 75 to 1125) by comparing t = 0 min samples with t = 60 min samples.

[3] = Pharmacokinetic study in dogs, released DPTIP in plasma after IV or peroral dose; format: in vivo, male Beagle dogs
Protocol: The PK studies in dogs were performed in accordance with the guidelines recommended by Pharmaron (San Diego, CA, USA) Institutional Animal Care and Use Committee. Briefly, male Beagle dogs 9 to 11 kg were obtained from the test facility’s colony of non-naïve animals. The animals were fasted overnight prior to dose administration and fed 4 h after dosing. The body weights were recorded and the animals were dosed with DPTIP, and prodrugs 2, 3, 4, 6, 7, 8, and 9 at 2 mg/kg equivalent of DPTIP as a single preoral dose PO (n = 2) with the exception of DPTIP IV dosed at 1 mg/kg (n = 1). All drugs were dissolved in the formulations (5% NMP, 5% Kolliphor, 30% PEG, and 60% water v/v) made freshly prior to dosing. The blood samples were collected via a cephalic vein at specified time points (0.083, 0.25, 0.5, 1, 2, 4, 6, 8, and 24 h) post-drug administration, and transferred into tubes containing sodium fluoride as a stabilizer (10 µL/mL of 500 µg/mL). The tubes were stored on wet ice until processed to plasma by centrifugation (3500× g at 4 °C for 10 min) within 30 min of collection. The plasma samples were transferred into individually labeled matrix tubes and stored at nominal −80 °C immediately (within 10 min of separation) until bioanalysis.
The quantification of the released DPTIP was performed using our previously published method with minor modifications. Briefly, calibration standards were prepared by spiking the DPTIP into naïve plasma from mice and dogs. All the calibration curves were constructed in the range of 1–3000 pmol/mL in the naïve sample-matched matrices in both the mouse and dog samples. Linear regression with 1/(nominal concentration) weighting factor was used for fitting the calibration curve. A correlation coefficient greater than 0.99 was considered acceptable in the analytical runs for all analyses.
The plasma samples from both mice and dogs were processed through simple protein precipitation. For this, 20 µL of plasma was mixed with 100 µL methanol containing 0.5 µM losartan (internal standards; IS) in low retention microcentrifuge tubes. All samples were vortex-mixed and centrifuged at 16,000× g for 5 min at 4 °C. A 50 µL of aliquot of supernatant was diluted with 50 µL of LC-MS water transferred to a 96-well polypropylene autosampler sealed with a Teflon cap. A volume of 2 µL was injected onto the ultra-performance liquid chromatography instrument for quantitative analysis using a temperature-controlled autosampler operating at 4 °C. Chromatographic separation was performed using a Thermo Scientific Vanquish ultra-high-performance system consisting of an analytical pump and coupled with a TSQ Altis mass spectrometer. The analytes were separated using an Agilent Eclipse Plus column (100 × 2.1 mm i.d, 1.8 μm) maintained at 35 °C. The (M+H)^+ ion transition of DPTIP (m/z 378.85 → 363.07, 200.05) and losartan (IS) (m/z 423.2 → 207.10, 180.88) were used. A gradient method was used with a mobile phase composition of 0.1% formic acid in acetonitrile and 0.1% formic acid in water.
The plasma concentrations (pmol/mL) for the mice were quantified, and plots of mean plasma concentration versus time were constructed using GraphPad Prism (10.3.0). Similarly, plasma concentrations (pmol/mL) for the dogs were measured and corresponding mean plasma concentration versus time plots were generated. The plasma concentrations in both mice and dogs were analyzed using a noncompartmental analysis method as implemented in the computer software program Phoenix WinNonlin version 8.4 (Certara USA Inc., Princeton, NJ, USA). The maximum plasma concentration (Cmax) and time to Cmax (Tmax) were the observed values. The area under the plasma concentration–time curve (AUC) values were calculated to the last quantifiable sample (AUC0–t) using the log-linear trapezoidal rule. The oral bioavailability was calculated by AUCPO divided by AUC IV with dose normalization. […]

[4] = parameters: method as in PMID 35930706; details: cited from earlier work; for Cmax / Tmax / t(1/2) / AUC0–t: released DPTIP in plasma, CES1−/− mice, PO 10 mg/kg DPTIP or equivalent, previously published
[5] = parameters: method as in PMID 30531925, PMID 30921693; details: cited from earlier work
[6] = In vitro stability in human plasma; format: in vitro ADME; details: 37 °C; for remaining at 1 h, 10 μM: human, 60 min, read-out: In Vitro Stability in Plasma (% Remaining at 60 min) Mean ± SEM (n = 3), Humans; for In Vitro Stability in Plasma (% Remaining at 60 min) Mean ± SEM (n = 3), Humans: 10 μM
Protocol: as §1

[7] = In vitro stability in mouse plasma; format: in vitro ADME; details: CES1−/−, 37 °C, 60 min, read-out: In Vitro Stability in Plasma (% Remaining at 60 min) Mean ± SEM (n = 3), Mice
Protocol: as §1

[8] = parameters: method as in PMID 35930706; details: CES1−/− mouse plasma, 10 μM, 37 °C, previously published; cited from earlier work
[9] = test system: rat brain nSMase2; parameters: method as in PMID 33395289; details: cited from earlier work
[10] = Pharmacokinetic study in CES1−/− mice, released DPTIP in plasma after peroral dose; format: in vivo, C57BL/6 CES1−/− mice; details: PO 10 mg/kg DPTIP equivalent
Protocol: In vivo mice PK studies were carried out as previously described. Briefly, mice PK studies were carried out in CES1^−/− mice according to protocols approved by the Animal Care and Use Committee at Johns Hopkins University. The C57BL/6 CES1^−/^− mice were received from the United States Army Medical Research Institute of Chemical Defense, Maryland, and maintained on a 12 h light−dark cycle with ad libitum access to food and water. Prodrugs 3, 4, 5, 6, 8, and 9 were administered at a dose of 10 mg/kg equivalent of DPTIP to CES1^−/− mice as a single peroral (PO) dose made fresh in formulation (5% DMSO, 10% tween, and 85% saline v/v/v) prior to dosing. […]
The quantification of the released DPTIP was performed using our previously published method with minor modifications. […]
The plasma samples from both mice and dogs were processed through simple protein precipitation. […] A volume of 2 µL was injected onto the ultra-performance liquid chromatography instrument for quantitative analysis using a temperature-controlled autosampler operating at 4 °C. […]
The plasma concentrations (pmol/mL) for the mice were quantified, and plots of mean plasma concentration versus time were constructed using GraphPad Prism (10.3.0). Similarly, plasma concentrations (pmol/mL) for the dogs were measured and corresponding mean plasma concentration versus time plots were generated. […]

[11] = parameters: method as in PMID 8593015; details: valine ester prodrug, transport via PEPT1 in the intestine; cited from earlier work

COc1cc(-c2nc(-c3cccs3)c(-c3ccccc3)[nH]2)cc(OC)c1O [DPTIP, 2,6-dimethoxy-4-(5-phenyl-4-(thiophen-2-yl)-1H-imidazol-2-yl)-phenol]
IC50 [1]: 30 nM | remaining at 1 h, 10 μM [2]: > 90% | t(1/2) ([3]; IV 1 mg/kg (n = 1), 1 mg/kg): 3.71 h | clearance ([3]; male, Beagle, dog, plasma, IV 1 mg/kg, read-out: clearance (CL)): 12 mL/min/kg | C0 ([3]; male, Beagle, dog, plasma, IV 1 mg/kg, read-out: initial plasma concentration (C0)): 2500 nM | Vd ([3]; male, Beagle, dog, plasma, IV 1 mg/kg, read-out: volume of distribution (Vd)): 3.8 L/kg | half-life ([3]; male, Beagle, dog, plasma, iv, 1 mg/kg, IV 1 mg/kg (n = 1)): 3.7 h | AUC(0-t) ([3]; male, Beagle, dog, plasma, iv, 1 mg/kg, IV 1 mg/kg, read-out: exposures (AUC0–t)): 3.9 µM·h | Cmax ([3]; male, Beagle, dog, plasma, iv, 1 mg/kg, IV 1 mg/kg, read-out: maximum plasma concentration (Cmax)): 2400 nM | AUC(0-t) ([3]; male, Beagle, dog, plasma, iv, 1 mg/kg, IV 1 mg/kg, value dose adjusted to 2 mg/kg, read-out: AUC0–t): 7.81 µM·h | Cmax ([3]; male, Beagle, dog, plasma, iv, 1 mg/kg, IV 1 mg/kg, value dose adjusted to 2 mg/kg, read-out: Cmax): 4800 nM | Cmax [4]: 307 ± 93.9 nM | Tmax [4]: 0.25 h | t(1/2) [4]: 0.46 h | half-life (t1/2) ([5]; as given in abstract): ≤ 0.5 h | half-life ([5]; mice): < 0.5 h | oral bioavailability (%F) ([5]; mice): < 5% | remaining at 1 h, 10 μM [6]: > 90%

COc1cc(-c2nc(-c3ccccc3)c(-c3cccs3)[nH]2)cc(OC)c1OC(=O)[C@@H](NC(=O)[C@@H](N)C(C)C)C(C)C [Prodrug 9]
In Vitro Stability in Plasma (% Remaining at 60 min) Mean ± SEM (n = 3), Dogs [2]: 76.3 ± 1.8% | remaining at 1 h, 10 μM [7]: 40 to 77% | In Vitro Stability in Plasma (% Remaining at 60 min) Mean ± SEM (n = 3), Humans [6]: 76.4 ± 1.4%

CCCCCN(C)C(=O)Oc1c(OC)cc(-c2nc(-c3ccccc3)c(-c3cccs3)[nH]2)cc1OC [Prodrug 5]
In Vitro Stability in Plasma (% Remaining at 60 min) Mean ± SEM (n = 3), Dogs [2]: 49.5 ± 1.0% | remaining at 1 h, 10 μM [2]: 40 to 77% | In Vitro Stability in Plasma (% Remaining at 60 min) Mean ± SEM (n = 3), Humans [6]: 42.3 ± 2.1% | remaining at 1 h, 10 μM [6]: 40 to 77% | In Vitro Stability in Plasma (% Remaining at 60 min) Mean ± SEM (n = 3), Mice [8]: 59.9 ± 5.8 %

O=C(/C=C/c1ccc(/C=C/C(=O)Nc2ccc(C3=NCCN3)cc2)cc1)Nc1ccc(C2=NCCN2)cc1 [GW4869]
IC50 [9]: 1000 nM

COc1cc(-c2nc(-c3ccccc3)c(-c3cccs3)[nH]2)cc(OC)c1OC(=O)[C@@H](N)C(C)C [Prodrug 8, 2,6-Dimethoxy-4-(4-phenyl-5-(thiophen-2-yl)-1H-imidazol-2-yl) phenyl L-valinate hydrochloride]
remaining at 1 h, 10 μM [2]: ~0% | remaining at 1 h, 10 μM [6]: ~0%

CCCCCC(=O)Oc1c(OC)cc(-c2nc(-c3ccccc3)c(-c3cccs3)[nH]2)cc1OC [Prodrug 3]
In Vitro Stability in Plasma (% Remaining at 60 min) Mean ± SEM (n = 3), Dogs [2]: 62.9 ± 7.2% | remaining at 1 h, 10 μM [2]: ~60% | In Vitro Stability in Plasma (% Remaining at 60 min) Mean ± SEM (n = 3), Humans [6]: 79.3 ± 1.4% | remaining at 1 h, 10 μM [6]: ~80% | fold increase in DPTIP half-life compared to DPTIP [10]: no significant improvement

CCC1CC(N2CCCCC2)CC(CC)N1C(=O)Oc1c(OC)cc(-c2nc(-c3ccccc3)c(-c3cccs3)[nH]2)cc1OC (centres unmarked) [Prodrug 7]
remaining at 1 h, 10 μM [2]: > 90% | fold increase in DPTIP plasma exposure (AUC0–t) compared to DPTIP ([4]; mice, PO): > 4 fold and 4 fold | AUC0–t [4]: 1047 ± 101 ^α pmol·h/mL | Cmax [4]: 191 ± 39.6 nM | Tmax [4]: 2 h | t(1/2) [4]: 2.7 h | remaining at 1 h, 10 μM [6]: > 90%

COc1cc(-c2nc(-c3ccccc3)c(-c3cccs3)[nH]2)cc(OC)c1OC(=O)N(C)C [Prodrug 4]
remaining at 1 h, 10 μM [2]: > 90% | remaining at 1 h, 10 μM [6]: > 90%

COc1cc(-c2nc(-c3ccccc3)c(-c3cccs3)[nH]2)cc(OC)c1OCOP(=O)(O)O [Prodrug 6]
remaining at 1 h, 10 μM [2]: > 90% | remaining at 1 h, 10 μM [6]: > 90% | fold increase in DPTIP half-life compared to DPTIP [10]: no significant improvement

COc1cc(-c2nc(-c3ccccc3)c(-c3cccs3)[nH]2)cc(OC)c1OC(=O)N1CCC(N2CCCCC2)CC1 [Prodrug 2]
remaining at 1 h, 10 μM [2]: > 90% | AUC0–t [4]: 273 ± 36.8 pmol·h/mL | Cmax [4]: 149 ± 9.9 nM | Tmax [4]: 1 h | t(1/2) [4]: 1.4 h | remaining at 1 h, 10 μM [6]: > 90%

CC(C)[C@H](N)C(=O)OCCOCn1cnc2c(=O)[nH]c(N)nc21 [valacyclovir]
fold increase in oral bioavailability [11]: 3–5 fold
